Assay results reported in ChEMBL document CHEMBL4808247 (Bioorg Med Chem, 2021).
pKi: −log10 of the molar value. In brackets after ≈: the same amount, converted by molar mass.

Legend:
Klebsiella pneumoniae [1] = assay: Antibacterial activity against Klebsiella pneumoniae PLE producing class D beta-lactamase, OXA-48 assessed as reduction in microbial growth incubated for 16 to 20 hrs by broth microdilution method; type: functional; conditions: time 16-20 hrs
Enterobacter cloacae [2] = assay: Antibacterial activity against Enterobacter cloacae IR32 producing class B beta-lactamase, NDM1 assessed as reduction in microbial growth incubated for 16 to 20 hrs by broth microdilution method; type: functional; conditions: time 16-20 hrs
Escherichia coli [3] = assay: Antibacterial activity against Escherichia coli NIHJ JC-2 assessed as reduction in microbial growth incubated for 16 to 20 hrs by broth microdilution method; type: functional; conditions: time 16-20 hrs
Enterobacter cloacae [4] = assay: Antibacterial activity against Enterobacter cloacae SR36276 producing class C beta-lactamase, AmpC assessed as reduction in microbial growth incubated for 16 to 20 hrs by broth microdilution method; type: functional; conditions: time 16-20 hrs
Escherichia coli [5] = assay: Antibacterial activity against Escherichia coli SR34100 producing class A beta-lactamase, CTX-M-15 assessed as reduction in microbial growth incubated for 16 to 20 hrs by broth microdilution method; type: functional; conditions: time 16-20 hrs
Klebsiella pneumoniae [6] = assay: Antibacterial activity against Klebsiella pneumoniae JMI:211 producing class A beta-lactamase, KPC-2 assessed as reduction in microbial growth incubated for 16 to 20 hrs by broth microdilution method; type: functional; conditions: time 16-20 hrs
Escherichia coli [7] = assay: Antibacterial activity against Escherichia coli BL21(DE3) transfected with pET9a vector harboring class A beta lactamase, CTX-M-15 incubated for 16 to 20 hrs by broth microdilution method; type: functional; conditions: time 16-20 hrs
Escherichia coli [8] = assay: Antibacterial activity against Escherichia coli NIHJ JC-2 strain assessed as reduction in microbial growth incubated for 16 to 20 hrs in presence of avibactam by broth microdilution method; type: functional; conditions: time 16-20 hrs
Enterobacter cloacae [9] = assay: Antibacterial activity against Enterobacter cloacae 1,261,347 producing class A beta lactamase, PER-2 assessed as reduction in microbial growth incubated for 16 to 20 hrs in presence of avibactam by broth microdilution method; type: functional; conditions: time 16-20 hrs
Enterobacter cloacae [10] = assay: Antibacterial activity against Enterobacter cloacae IR32 producing class B beta-lactamase, NDM-1 assessed as reduction in microbial growth incubated for 16 to 20 hrs in presence of avibactam by broth microdilution method; type: functional; conditions: time 16-20 hrs
Escherichia coli [11] = assay: Antibacterial activity against Escherichia coli BL21(DE3) transfected with pET9a vector harboring class C beta lactamase, AmpC incubated for 16 to 20 hrs by broth microdilution method; type: functional; conditions: time 16-20 hrs
Enterobacterales [12] = assay: Antimicrobial activity against Enterobacterales producing VIM assessed as reduction in microbial growth measured after 16 to 20 hrs in presence of avibactam by broth microdilution method; type: functional; conditions: time 16-20 hrs
Enterobacterales [13] = assay: Antimicrobial activity against Enterobacterales producing KPC assessed as reduction in microbial growth measured after 16 to 20 hrs in presence of avibactam by broth microdilution method; type: functional; conditions: time 16-20 hrs
Escherichia coli [14] = assay: Antibacterial activity against Escherichia coli BL21(DE3) transfected with pET9a empty vector incubated for 16 to 20 hrs by broth microdilution method; type: functional; conditions: time 16-20 hrs
Escherichia coli [15] = assay: Antibacterial activity against Escherichia coli BL21(DE3) transfected with pET9a vector harboring class B beta lactamase, NDM-1 incubated for 16 to 20 hrs by broth microdilution method; type: functional; conditions: time 16-20 hrs
Escherichia coli [16] = assay: Antibacterial activity against Escherichia coli BL21(DE3) transfected with pET9a vector harboring class D beta lactamase, OXA-48 incubated for 16 to 20 hrs by broth microdilution method; type: functional; conditions: time 16-20 hrs
Escherichia coli [17] = assay: Antibacterial activity against Escherichia coli SR34100 producing class A beta lactamase, CTX-M-15 assessed as reduction in microbial growth incubated for 16 to 20 hrs in presence of avibactam by broth microdilution method
Klebsiella pneumoniae [18] = assay: Antibacterial activity against Klebsiella pneumoniae JMI:211 producing class A beta lactamase, KPC-2 assessed as reduction in microbial, growth incubated for 16 to 20 hrs in presence of avibactam by broth microdilution method; type: functional; conditions: time 16-20 hrs
Enterobacterales [19] = assay: Antimicrobial activity against Enterobacterales producing OXA-48 assessed as reduction in microbial growth measured after 16 to 20 hrs in presence of avibactam by broth microdilution method; type: functional; conditions: time 16-20 hrs
Enterobacter cloacae [20] = assay: Antibacterial activity against Enterobacter cloacae SR36276 producing class C beta lactamase, AmpC assessed as reduction in microbial growth incubated for 16 to 20 hrs in presence of avibactam by broth microdilution method; type: functional; conditions: time 16-20 hrs
Klebsiella pneumoniae [21] = assay: Antibacterial activity against Klebsiella pneumonia ATCC 13883 infected in cyclophosphamide-induced neutropenic Jcl:ICR mouse model assessed as log10 reduction in CFU at 10 mg/kg, sc administered at 2, 5 and 8 hrs after infection and measured at 10 hrs after infection; type: functional
Klebsiella pneumoniae [22] = assay: Antibacterial activity against Klebsiella pneumonia ATCC 13883 infected in cyclophosphamide-induced neutropenic Jcl:ICR mouse model assessed as log10 reduction in CFU at 3 mg/kg, sc administered at 2, 5 and 8 hrs after infection and measured at 10 hrs after infection; type: functional
Klebsiella pneumoniae [23] = assay: Antibacterial activity against Klebsiella pneumoniae PLE producing class D beta lactamase, OXA-48 assessed as reduction in microbial growth incubated for 16 to 20 hrs in presence of avibactam by broth microdilution method; type: functional; conditions: time 16-20 hrs
Enterobacterales [24] = assay: Antimicrobial activity against Enterobacterales producing NDM assessed as reduction in microbial growth measured after 16 to 20 hrs in presence of avibactam by broth microdilution method; type: functional; conditions: time 16-20 hrs
Klebsiella pneumoniae [25] = assay: Antibacterial activity against Klebsiella pneumoniae ATCC13883 assessed as reduction in microbial growth incubated for 16 to 20 hrs by broth microdilution method; type: functional; conditions: time 16-20 hrs
Enterobacterales [26] = assay: Antimicrobial activity against Enterobacterales producing VIM assessed as reduction in microbial growth measured after 16 to 20 hrs by broth microdilution method; type: functional; conditions: time 16-20 hrs
Enterobacterales [27] = assay: Antimicrobial activity against Enterobacterales producing OXA-48 assessed as reduction in microbial growth measured after 16 to 20 hrs by broth microdilution method; type: functional; conditions: time 16-20 hrs
Enterobacter cloacae [28] = assay: Antibacterial activity against Enterobacter cloacae 1,261,347 producing class A beta lactamase, PER-2 assessed as reduction in microbial growth incubated for 16 to 20 hrs by broth microdilution method; type: functional; conditions: time 16-20 hrs
Enterobacterales [29] = assay: Antimicrobial activity against Enterobacterales producing KPC assessed as reduction in microbial growth measured after 16 to 20 hrs by broth microdilution method; type: functional; conditions: time 16-20 hrs
[30] = Inhibition of CMY-2 in Escherichia coil BL21 assessed as inhibition of nitrocefin hydrolysis measured every 3 mins for 15 mins by UV spectrophotometer analysis; set-up: species or system Escherichia coli BL21
Enterobacterales [31] = assay: Antimicrobial activity against Enterobacterales producing NDM assessed as reduction in microbial growth measured after 16 to 20 hrs by broth microdilution method; type: functional; conditions: time 16-20 hrs

SMILES: Nc1nc(/C(=N/OCC(=O)O)C(=O)N[C@@H]2C(=O)N3[C@@H]2[S@@+]([O-])C[C@@H]2CC(=O)O[C@@]23C(=O)O)ns1
- MIC (Klebsiella pneumoniae [1]): 4 µg/mL
- MIC (Enterobacter cloacae [2]): 2 µg/mL
- MIC (Escherichia coli [3]): 1 µg/mL
- MIC (Enterobacter cloacae [4]): 1 µg/mL
- MIC (Escherichia coli [5]): 8 µg/mL
- MIC (Klebsiella pneumoniae [6]): 1 µg/mL

SMILES: C[C@H](O/N=C(\C(=O)N[C@@H]1C(=O)N2[C@@H]1[S@@+]([O-])C[C@@H]1CC(=O)O[C@@]12C(=O)O)c1csc(N)n1)C(=O)O (stereo in doubt)
- MIC (Klebsiella pneumoniae [1]): 1 µg/mL
- MIC (Enterobacter cloacae [2]): 0.5 µg/mL
- MIC (Escherichia coli [3]): 0.25 µg/mL
- MIC (Enterobacter cloacae [4]): 0.25 µg/mL
- MIC (Escherichia coli [5]): 1 µg/mL
- MIC (Klebsiella pneumoniae [6]): 0.5 µg/mL

SMILES: CC(C)(O/N=C(\C(=O)N[C@@H]1C(=O)N2C(C(=O)[O-])=C(C[n+]3ccccc3)CS[C@H]12)c1csc(N)n1)C(=O)O [CEFTAZIDIME]
- MIC (Escherichia coli [7]): 0.25 µg/mL (≈ 0.457 µM)
- MIC (Klebsiella pneumoniae [1]): 1 µg/mL
- MIC (Enterobacter cloacae [2]): > 32 µg/mL
- MIC (Escherichia coli [8]): 0.25 µg/mL
- MIC (Enterobacter cloacae [9]): > 32 µg/mL
- MIC (Enterobacter cloacae [10]): > 32 µg/mL
- MIC (Escherichia coli [11]): 0.25 µg/mL (≈ 0.457 µM)
- MIC (Escherichia coli [3]): 0.25 µg/mL
- MIC50 (Enterobacterales [12]): > 64 µg/mL
- MIC90 (Enterobacterales [12]): > 64 µg/mL
- MIC50 (Enterobacterales [13]): 4 µg/mL
- MIC90 (Enterobacterales [13]): > 64 µg/mL
- MIC (Escherichia coli [14]): 0.063 µg/mL (≈ 0.115 µM)
- MIC (Escherichia coli [15]): > 16 µg/mL
- MIC (Escherichia coli [16]): 0.063 µg/mL (≈ 0.115 µM)
- MIC (Escherichia coli [17]): 1 µg/mL
- MIC (Enterobacter cloacae [4]): > 32 µg/mL
- MIC (Klebsiella pneumoniae [18]): 1 µg/mL
- MIC50 (Enterobacterales [19]): 0.125 µg/mL
- MIC90 (Enterobacterales [19]): 4 µg/mL
- MIC (Enterobacter cloacae [20]): 1 µg/mL
- MIC (Escherichia coli [5]): > 32 µg/mL
- Activity (Klebsiella pneumoniae [21]): 3.05 log10CFU
- Activity (Klebsiella pneumoniae [22]): 2.67 log10CFU
- MIC (Klebsiella pneumoniae [23]): 0.25 µg/mL
- MIC50 (Enterobacterales [24]): > 64 µg/mL
- MIC90 (Enterobacterales [24]): > 64 µg/mL
- MIC (Klebsiella pneumoniae [25]): 0.25 µg/mL

SMILES: Nc1nc(/C(=N/OCC(=O)O)C(=O)N[C@@H]2C(=O)N3[C@@H]2S(=O)(=O)C[C@@H]2CC(=O)O[C@@]23C(=O)O)cs1 (stereo in doubt)
- MIC (Klebsiella pneumoniae [1]): 0.5 µg/mL
- MIC (Enterobacter cloacae [2]): 0.25 µg/mL
- MIC (Escherichia coli [3]): 0.25 µg/mL
- MIC (Enterobacter cloacae [4]): 1 µg/mL
- MIC (Escherichia coli [5]): 1 µg/mL
- MIC (Klebsiella pneumoniae [6]): 0.5 µg/mL

SMILES: Nc1nc(/C(=N/OCC(=O)O)C(=O)N[C@@H]2C(=O)N3[C@@H]2[S@@+]([O-])C[C@@H]2CC(=O)O[C@@]23C(=O)O)cs1 (stereo in doubt)
- MIC50 (Enterobacterales [26]): 0.25 µg/mL
- MIC90 (Enterobacterales [26]): 1 µg/mL
- MIC (Klebsiella pneumoniae [1]): 0.125 µg/mL
- MIC (Enterobacter cloacae [2]): 0.063 µg/mL
- MIC50 (Enterobacterales [27]): 0.125 µg/mL
- MIC90 (Enterobacterales [27]): 0.25 µg/mL
- MIC (Enterobacter cloacae [28]): 0.25 µg/mL
- MIC50 (Enterobacterales [29]): 0.25 µg/mL
- MIC90 (Enterobacterales [29]): 0.5 µg/mL
- MIC (Escherichia coli [3]): 0.063 µg/mL
- pKi [30]: < 4.22
- MIC (Enterobacter cloacae [4]): 0.063 µg/mL
- MIC (Escherichia coli [5]): 0.125 µg/mL
- Activity (Klebsiella pneumoniae [21]): 2.46 log10CFU
- Activity (Klebsiella pneumoniae [22]): 2.11 log10CFU
- MIC50 (Enterobacterales [31]): 0.25 µg/mL
- MIC90 (Enterobacterales [31]): 1 µg/mL
- MIC (Klebsiella pneumoniae [6]): 0.063 µg/mL
- MIC (Klebsiella pneumoniae [25]): 0.125 µg/mL

SMILES: Nc1nc(/C(=N/OC2(C(=O)O)CC2)C(=O)N[C@@H]2C(=O)N3[C@@H]2SC[C@@H]2CC(=O)O[C@@]23C(=O)O)cs1 (stereo in doubt)
- MIC (Klebsiella pneumoniae [1]): 1 µg/mL
- MIC (Enterobacter cloacae [2]): 0.25 µg/mL
- MIC (Escherichia coli [3]): 0.125 µg/mL
- MIC (Enterobacter cloacae [4]): 8 µg/mL
- MIC (Escherichia coli [5]): 0.25 µg/mL
- MIC (Klebsiella pneumoniae [6]): 0.5 µg/mL

SMILES: Nc1nc(/C(=N/OCC(=O)O)C(=O)N[C@@H]2C(=O)N3[C@@H]2SC[C@@H]2CC(=O)O[C@@]23C(=O)O)c(Cl)s1
- MIC (Klebsiella pneumoniae [1]): 16 µg/mL
- MIC (Enterobacter cloacae [2]): 2 µg/mL
- MIC (Escherichia coli [3]): 1 µg/mL
- MIC (Enterobacter cloacae [4]): 8 µg/mL
- MIC (Escherichia coli [5]): 4 µg/mL
- MIC (Klebsiella pneumoniae [6]): 4 µg/mL

SMILES: C[C@H](O/N=C(\C(=O)N[C@@H]1C(=O)N2[C@@H]1SC[C@@H]1CC(=O)O[C@@]12C(=O)O)c1csc(N)n1)C(=O)O (stereo in doubt)
- MIC (Klebsiella pneumoniae [1]): 0.5 µg/mL
- MIC (Enterobacter cloacae [2]): 0.25 µg/mL
- MIC (Escherichia coli [3]): 0.125 µg/mL
- MIC (Enterobacter cloacae [4]): 16 µg/mL
- MIC (Escherichia coli [5]): 0.5 µg/mL
- MIC (Klebsiella pneumoniae [6]): 0.25 µg/mL

SMILES: C[C@H]1[C@H](NC(=O)/C(=N\OC(C)(C)C(=O)O)c2csc(N)n2)C(=O)N1S(=O)(=O)O (stereo in doubt) [AZTREONAM]
- MIC (Escherichia coli [8]): 0.125 µg/mL
- MIC50 (Enterobacterales [12]): 0.25 µg/mL
- MIC90 (Enterobacterales [12]): 2 µg/mL
- MIC50 (Enterobacterales [13]): 0.5 µg/mL
- MIC90 (Enterobacterales [13]): 1 µg/mL
- MIC50 (Enterobacterales [19]): 0.063 µg/mL
- MIC90 (Enterobacterales [19]): 0.25 µg/mL
- MIC50 (Enterobacterales [24]): 0.25 µg/mL
- MIC90 (Enterobacterales [24]): 1 µg/mL
